Test results taken from PMC6060094, “Structural determinants of the catalytic mechanism of Plasmodium CCT, a key enzyme of malaria lipid biosynthesis” (Scientific Reports, 2018).
Like-named read-outs stand apart in the source and are kept apart here.

Experiments:
PfCCT(581–775) [1] = molecular target: T1, PfCCT(581–775) (Plasmodium falciparum, UniProt P49587, DEL194-211); experiment: Saturation Transfer Difference NMR (STD-NMR) ligand binding; details: 50 µM PfCCT(581-775), 283 K
T1 construct: The PfCCT(581–775) construct was obtained using previously described PfCCT(528–795); 6xHis (TEV-cleavable) (N, cleaved yes); made in house; host or cells: E. coli BL21 (DE3)
Protocol: In order to provide structural insights into the mechanism of action of PfCCT, we set out to crystallize the constitutively active C-terminal catalytic domain of PfCCT. Several constructs were tested and our attempts were successful only in case of PfCCT(581–775) that corresponds to the exact region visible in the crystal structure of RnCCT (PDB: 3HL4)[20] (Fig. 1a). […] (Table 1 and Supplementary Fig. S1). We further assessed the functionality of PfCCT(581–775) by characterizing its substrate and product binding ability. […] Saturation Transfer Difference Nuclear Magnetic Resonance (STD-NMR) experiments indicated STD signal of CTP, ChoP and CDPCho bound to PfCCT(581–775) at 1 mM, 4 mM and 1 mM concentrations, respectively (Supplementary Fig. S1). This latter result is consistent with previously observed unusually low ChoP affinity of PfCCT[16]. We concluded that PfCCT(581–775) is compatible with substrate and product recognition and may be amenable to structural studies provided that its compromised enzymatic function is taken into account in structure-based interpretations. It is likely that the drop of PfCCT(581–775) enzyme activity is due to the elimination of the C-terminal flanking part as similarly located truncations in the RnCCT catalytic domain also led to severe loss of activity[28],[29]. […]
Kinetic data are fitted with the Michaelis–Menten equation. […] Values of the measured kinetic and thermodynamic parameters and their errors […]
(black) of 50 µM PfCCT(581-775) in 20 mM Tris/HCl pH 7.5, 150 mM NaCl and 2 mM EtSH are shown in presence of c) 1 mM CTP, d) 4 mM ChoP and e) 1 mM CDPCho. […] The 1D 1H STD-NMR spectra were recorded on a Bruker 500 MHz instrument at 283 K with 256 scans and selective saturation of protein resonances at 0.922 ppm using a series of Gaussian shaped pulses (20 ms, 1 ms delay between the pulses). […] All 1D 1H NMR spectra were recorded […]

PfCCT(581–775) [2] = molecular target: T1, PfCCT(581–775); experiment: Equilibrium ligand binding by isothermal titration calorimetry (ITC); details: 20 °C
Protocol: (§1) Calorimetric measurements were performed on an ITC 200 titration calorimeter (Malvern) at 20 °C. The protein samples were dialyzed against 20 mM HEPES/NaOH pH 7.5, 100 mM NaCl, including 0.5 mM Tris(2-carboxyethyl)phosphine (TCEP) as reducing agent. CTP and CDPCho were diluted from a concentrated stock into the dialysis buffer with subsequent pH adjustment. Concentration of the titrating nucleotide ligands were determined using molar extinction coefficients 9000 M^−1 cm^−1 at 271 nm for CTP and 5000 M^−1 cm^−1 at 260 nm for CDPCho[16]. In the experimental setup, the cell of the instrument was filled with protein and the syringe with the ligand. The titrations typically included 19 steps of injection with 2 μl of ligand per injection spaced 180 s apart from each other, with the injection syringe rotating at 750 r.p.m. The data were analyzed using MICROCAL ORIGIN software following the directions of the manufacturer. To account for dilution, the invariant integrated heat value of the last 3–5 data points was subtracted from all data points. The one set of independent sites binding model was applied to data for determination of thermodynamic parameters: dissociation constant (Kd), stoichiometry (N), enthalpy (ΔH) and entropy (ΔS). Due to the low apparent affinity, the N value was fixed to a constant value of 1 in CTP titrations to PfCCT(528–795) K663A according to the low c value ITC data analysis protocol[40],[41]. For CTP and CDPCho titrations of PfCCT(528–795) K663A, and CTP titrations of T761A and T762A variants of PfCCT(528-795), mean and SD from two independent experiments are provided, whereas for CDPCho titrations of PfCCT(581–775) and PfCCT(528-795) mean and SD from three independent experiments are provided. For PfCCT(528-795) (Y626F/Q636A), errors of model fit to data of a single ligand binding experiment are given.

PfCCT(528–795) K663A [3] = molecular target: T2, PfCCT(528–795) K663A (Plasmodium falciparum, UniProt Q8IEE9, DEL720-737/K663A); experiment: as above; details: 20 °C
Protocol: as §1

[4] = molecular target: T3, PfCCT(528–795) Y626F/Q636A (Plasmodium falciparum, UniProt Q8IEE9, DEL720-737/Q636A/Y626F); experiment: as above; details: 20 °C, pH 7.5, single experiment, errors of model fit
Protocol: as §1

PfCCT(528–795) [5] = molecular target: T4, PfCCT(528–795) (Plasmodium falciparum, UniProt P49587, DEL194-211); experiment: as above; details: 20 °C
T4 construct: previously described PfCCT(528–795) lacking the lysine-rich Plasmodium specific loop (720–737); His-tag; made in house
Protocol: as §1

PfCCT(581–775) [6] = molecular target: T1, PfCCT(581–775); experiment: Continuous coupled colorimetric enzyme activity assay (PPase/PNP/MESG); type: biochemical; details: CTP varied 100 μM–2 mM, ChoP fixed 5 mM
Protocol: (§2) Enzyme activity measurements were performed as described previously, using a continuous coupled colorimetric assay with pyrophosphatase (PPase), purine nucleoside phosphorylase (PNP) auxiliary enzymes and the auxiliary substrate 7-methyl-6-thioguanosine (MESG)[16],[30],[39]. For CTP substrate titrations, CTP concentration was varied between 100 μM and 2 mM while ChoP concentration was kept constant at 5 mM. For ChoP titrations, ChoP concentration was varied between 0.5 mM and 20 mM while CTP concentration was kept constant at 1 mM. Initial velocities were calculated from the first 10% of the progress curves using phosphate calibration as reference. Due to the low activity of PfCCT(581–775) and PfCCT(528–795) T761A, T762A variants, the enzyme was used at 10 μM concentration and the slope of the absorbance change was determined after monitoring the reaction for 20 minutes. For measurements with PfCCT(528–795) K663A the following reagent concentrations were used in the enzyme assay: [PPase] = 0.17 U·ml^−1, [PNP] = 1.25 U·ml^−1, [MESG] = 0.1 mM, [Mg^2+] = 5 mM and [PfCCT(528–795) K663A] = 10 μM, to yield adequate signal-to-noise ratio (S/N > 10). Three independent experiments were performed for CTP and ChoP kinetic titrations of PfCCT(528–795) K663A. Global fit of CTP and ChoP kinetic titrations for each enzyme variant was performed in Origin 8.6 using Michaelis–Menten equation, to yield a single kcat parameter.

[7] = molecular target: T3, PfCCT(528–795) Y626F/Q636A; experiment: as above; type: biochemical
Protocol: as §2

PfCCT(528–795) [8] = molecular target: T4, PfCCT(528–795); design: method as in Nagy et al.[16]; details: ref Nagy et al.[16], cited from earlier work
PfCCT(528–795) K663A [9] = molecular target: T2, PfCCT(528–795) K663A; experiment: Continuous coupled colorimetric enzyme activity assay (PPase/PNP/MESG); type: biochemical; details: refers to a phosphohydrolase activity; ChoP fixed 5 mM; read-out: KM,CTP
Description: The presence of Cho in the active site at least partially stabilizes the K663 side chain, while ChoP or CDPCho accommodation renders this residue fully visualized. The K663 terminal amino moiety points towards the phosphate group of ChoP or both phosphate moieties of CDPCho, in somewhat different conformations (Fig. 3e and Supplementary Fig. S3). These structural insights showing variable detection and interactions of K663 prompted us to an in-depth definition of its role throughout the course of the catalytic mechanism. We interrogated the functionality of this residue by site directed mutagenesis followed by biochemical analysis. […] The enzymatic activity was monitored by a coupled pyrophosphatase (PPase) assay and consisted of two consecutive steps: the cleavage of the byproduct pyrophosphate into two phosphates and the addition of phosphates to a nucleotide derivative, resulting a chromophore substance. […] The accumulation of free phosphate in the absence of the substrate, ChoP, argued for a CTP phosphohydrolase (CTP → CDP + Pi) activity of the K663A mutant (Supplementary Fig. S4). […] For reliable characterization of ligand interactions of this lysine, we measured the equilibrium ligand binding of CDPCho and CTP to PfCCT(528–795) K663A (Table 2 and Supplementary Fig. S4). […]

PfCCT(528–795) T762A [10] = experiment: Equilibrium ligand binding by isothermal titration calorimetry (ITC); design: species or system Plasmodium falciparum; details: 20 °C, pH 7.5, read-out: Kd,CTP
Protocol: as §1, with “Due to the low apparent affinity, the N value was fixed to a constant value of 1 in CTP titrations to PfCCT(528–795) K663A according to the low c value ITC data analysis protocol[40],[41]. For CTP and CDPCho titrations of PfCCT(528–795) K663A, and CTP titrations of T761A and T762A variants of PfCCT(528-795), mean and SD from two independent experiments are provided, whereas for CDPCho titrations of PfCCT(581–775) and PfCCT(528-795) mean and SD from three independent experiments are provided. For PfCCT(528-795) (Y626F/Q636A), errors of model fit to data of a single ligand binding experiment are given.” left out

PfCCT(528–795) T761A [11] = experiment: as above; design: species or system Plasmodium falciparum; details: 20 °C, pH 7.5, read-out: Kd,CTP
Protocol: as §1, with “Due to the low apparent affinity, the N value was fixed to a constant value of 1 in CTP titrations to PfCCT(528–795) K663A according to the low c value ITC data analysis protocol[40],[41]. For CTP and CDPCho titrations of PfCCT(528–795) K663A, and CTP titrations of T761A and T762A variants of PfCCT(528-795), mean and SD from two independent experiments are provided, whereas for CDPCho titrations of PfCCT(581–775) and PfCCT(528-795) mean and SD from three independent experiments are provided. For PfCCT(528-795) (Y626F/Q636A), errors of model fit to data of a single ligand binding experiment are given.” left out

PfCCT(528–795) T762A [12] = experiment: Continuous coupled colorimetric enzyme activity assay (PPase/PNP/MESG); type: biochemical, Plasmodium falciparum
Protocol: as §2

PfCCT(528–795) T761A [13] = experiment: as above; type: biochemical, Plasmodium falciparum
Protocol: as §2

[14] = CTP varied 100 μM–2 mM, ChoP fixed 5 mM, read-out: KM,CTP
[15] = ChoP varied 0.5–20 mM, CTP fixed 1 mM, read-out: KM,ChoP

T3 sequence (Q8IEE9 528-795, stated change not applied): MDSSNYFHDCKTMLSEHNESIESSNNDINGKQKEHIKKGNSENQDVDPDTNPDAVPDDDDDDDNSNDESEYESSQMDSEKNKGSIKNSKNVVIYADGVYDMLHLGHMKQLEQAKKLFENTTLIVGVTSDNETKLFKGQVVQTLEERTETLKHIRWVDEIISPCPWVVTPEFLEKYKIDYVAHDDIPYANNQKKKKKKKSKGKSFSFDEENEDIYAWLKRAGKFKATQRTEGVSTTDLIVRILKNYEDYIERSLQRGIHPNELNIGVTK
T2 sequence (Q8IEE9 528-795, stated change not applied): as above

## C[N+](C)(C)CCOP(=O)(O)OP(=O)([O-])OC[C@H]1O[C@@H](n2ccc(N)nc2=O)[C@H](O)[C@@H]1O [CDPCho, CDP-choline]
PfCCT(581–775) [1]; ligand 1 mM
  STD-NMR signal of ligand bound to enzyme: STD signal
PfCCT(581–775) [2]; pH 7.5
  ΔGCDP-Cho: -5.8 ± 0.1 kcal/mol
  ΔHCDP-Cho: -10.5 ± 0.3 kcal/mol
  −TΔSCDP-Cho: 4.7 ± 0.4 kcal/mol
PfCCT(581–775) [2]; pH 7.5, read-out: Kd,CDP-Cho
  Kd: 47 ± 5 µM
PfCCT(528–795) K663A [3]; pH 7.5
  ΔGCDP-Cho: -5.0 ± 1.4 kcal/mol
  ΔHCDP-Cho: -11.4 ± 1.5 kcal/mol
  −TΔSCDP-Cho: 6.5 ± 1.6 kcal/mol
PfCCT(528–795) K663A [3]; pH 7.5, read-out: Kd,CDP-Cho
  Kd: 210 ± 60 µM
[4]
  ΔGCDP-Cho: -6.2 ± 0.1 kcal/mol
  ΔHCDP-Cho: -12.0 ± 0.2 kcal/mol
  −TΔSCDP-Cho: 5.8 ± 0.1 kcal/mol
[4]; read-out: Kd,CDP-Cho
  Kd: 22.2 ± 0.2 µM
PfCCT(528–795) [5]; pH 7.5
  ΔGCDP-Cho: -6.0 ± 0.2 kcal/mol
  ΔHCDP-Cho: -16.1 ± 0.1 kcal/mol
  −TΔSCDP-Cho: 10.1 ± 0.1 kcal/mol
PfCCT(528–795) [5]; pH 7.5, read-out: Kd,CDP-Cho
  Kd: 34 ± 1 µM

## Nc1ccn([C@@H]2O[C@H](COP(=O)(O)OP(=O)(O)OP(=O)(O)O)[C@@H](O)[C@H]2O)c(=O)n1 [CTP]
PfCCT(581–775) [1]; ligand 1 mM
  STD-NMR signal of ligand bound to enzyme: STD signal
PfCCT(528–795) K663A [3]; pH 7.5, N fixed to 1
  ΔGCTP: -4.4 ± 0.1 kcal/mol
  −TΔSCTP: -10.5 ± 0.6 kcal/mol
PfCCT(528–795) K663A [3]; pH 7.5, N fixed to 1 (low c value protocol), read-out: Kd,CTP
  Kd: 520 ± 50 µM
[4]
  ΔGCTP: -5.7 ± 0.1 kcal/mol
  ΔHCTP: -10.8 ± 0.1 kcal/mol
  −TΔSCTP: 5.1 ± 0.2 kcal/mol
[4]; read-out: Kd,CTP
  Kd: 60 ± 2 µM
PfCCT(528–795) [5]; pH 7.5
  ΔGCTP: -5.7 ± 0.1 kcal/mol
  ΔHCTP: -8.6 ± 0.3 kcal/mol
  −TΔSCTP: 3.0 ± 0.4 kcal/mol
PfCCT(528–795) [5]; pH 7.5, read-out: Kd,CTP
  Kd: 60 ± 2 µM
PfCCT(581–775) [6]
  Km: 1100 µM
[7]; [14]
  Km: 170 ± 10 µM
PfCCT(528–795) [8]; read-out: KM,CTP
  Km: 170 ± 20 µM
PfCCT(528–795) K663A [9]
  Km: 70 ± 20 µM
PfCCT(528–795) T762A [10]
  Kd: 170 ± 12 µM
PfCCT(528–795) T761A [11]
  Kd: 170 ± 35 µM
PfCCT(528–795) T762A [12]; [14]
  Km: 610 ± 70 µM
PfCCT(528–795) T761A [13]; [14]
  Km: 1270 µM

## C[N+](C)(C)CCOP(=O)(O)O [ChoP, phosphocholine]
PfCCT(581–775) [1]; ligand 4 mM
  STD-NMR signal of ligand bound to enzyme: STD signal
[7]; [15]
  Km: 1600 µM
PfCCT(528–795) [8]; read-out: KM,ChoP
  Km: 1950 µM
PfCCT(528–795) T762A [12]; [15]
  Km: 2100 µM
PfCCT(528–795) T761A [13]; [15]
  Km: 3700 µM
